From article PMC4232510, “Identification of Functionally Important Residues of the Rat P2X4 Receptor by Alanine Scanning Mutagenesis of the Dorsal Fin and Left Flipper Domains” (PLoS ONE, 2014) come the findings set out here.

Substitutions are numbered along the chain they refer to.

One assay concerns the target T1, rP2X4R I209A mutant (Rattus norvegicus, UniProt P51577, I209A).
T1 construct: expressed in transfected cells; host or cells: HEK293T
T1 sequence (P51577 1-388 I209A): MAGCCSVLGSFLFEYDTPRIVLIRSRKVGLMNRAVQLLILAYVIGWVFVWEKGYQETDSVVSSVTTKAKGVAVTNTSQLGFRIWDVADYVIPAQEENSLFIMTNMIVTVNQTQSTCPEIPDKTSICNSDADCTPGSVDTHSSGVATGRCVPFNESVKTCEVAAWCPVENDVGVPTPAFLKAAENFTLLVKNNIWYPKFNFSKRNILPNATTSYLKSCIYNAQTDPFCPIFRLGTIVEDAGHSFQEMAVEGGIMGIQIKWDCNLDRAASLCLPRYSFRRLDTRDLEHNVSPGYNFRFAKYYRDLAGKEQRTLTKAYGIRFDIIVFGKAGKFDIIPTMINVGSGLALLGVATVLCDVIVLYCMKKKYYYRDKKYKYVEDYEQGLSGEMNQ
Kind of assay: whole-cell patch clamp, HEK293T cells expressing mutant. Type of assay: cell-based. (The patch-clamp technique gives a direct electrical read-out from membranes.)

Another assay deals with T2, rP2X4R N287A mutant (Rattus norvegicus, UniProt P51577, N287A).
T2 construct: expressed in transfected cells; host or cells: HEK293T
T2 sequence (P51577 1-388 N287A): T1 sequence (P51577 1-388 I209A) with A209I, N287A
The assay is described as above. Type of assay: cell-based.

The mark [1] stands for this setting: 100 µM ATP 60 s, biexponential fit.
Where [2] appears, read: contribution of τdes2, 100 µM ATP 60 s.
Setting [3] is: decay after removal of 1 or 3 µM ATP, 3 µM IVM.
[4] abbreviates: naïve receptors, 2–5 s application.
The mark [5] stands for this setting: 3 µM IVM 4-6 min vs IVM-untreated.

Broadly, the EC50 is the concentration that produces a half-maximal response. Higher therefore signals a less potent agent. `Nc1ncnc2c1ncn2[C@@H]1O[C@H](COP(=O)(O)OP(=O)(O)OP(=O)(O)O)[C@@H](O)[C@H]1O` [ATP]: the τdes1 on rP2X4R I209A mutant (setting [1]) was 2.1 ± 0.8 s; on rP2X4R N287A mutant (setting [1]), 1.6 ± 0.1 s. Further, the τdes2 at rP2X4R I209A mutant (setting [1]) came to 9.3 ± 2.6 s; at rP2X4R N287A mutant (setting [1]) it was 10.2 ± 3.0 s. In addition, the results for the Imax at rP2X4R I209A mutant (100–1000 µM ATP) and on rP2X4R N287A mutant (100–1000 µM ATP) were 1.9 ± 0.4 nA and 1.6 ±0.2 nA, respectively. The “Imax+IVM” value at rP2X4R I209A mutant (ATP after 3 µM IVM 4-6 min) is listed as 4.1 ± 0.8 nA; on rP2X4R N287A mutant (ATP after 3 µM IVM 4-6 min), 4.0 ± 0.6 nA. The “A2 /(A1+A2)” value on rP2X4R I209A mutant (setting [2]) is 70 ± 2%; on rP2X4R N287A mutant (setting [2]) it was 75 ± 16%. Also, the “τoff +IVM” value at rP2X4R I209A mutant (setting [3]) came out at 22 ± 3.0 s; on rP2X4R N287A mutant (setting [3]), 16 ± 2.5 s. For the same molecule, the values for the EC50 at rP2X4R I209A mutant (setting [4]) and on rP2X4R N287A mutant (setting [4]) were 4.3 ± 2.1 µM and 3.2 ± 1 µM, respectively. Further, the τdes at rP2X4R I209A mutant (weighted, 100 µM ATP 60 s) is 6.3 ± 0.2 s; on rP2X4R N287A mutant (weighted, 100 µM ATP 60 s) it was 7.1 ± 0.5 s.
Consider `CC[C@H](C)[C@H]1O[C@]2(CC[C@@H]1C)C[C@@H]1C[C@@H](C/C=C(\C)[C@@H](O[C@H]3C[C@H](OC)[C@@H](O[C@H]4C[C@H](OC)[C@@H](O)[C@H](C)O4)[C@H](C)O3)[C@@H](C)/C=C/C=C3\CO[C@@H]4[C@H](O)C(C)=C[C@@H](C(=O)O1)[C@]34O)O2` [IVM, ivermectin], for which the “Fold incr. Imax” value turned out to be 2.1 ± 0.3 fold on rP2X4R I209A mutant (setting [5]) and 3.3 ± 0.4 fold at rP2X4R N287A mutant (setting [5]).
